Assay results: patent US11952368B2, “FAPI dimer compound, FAPI dimer-based positron emission tomography (PET) imaging agent for tumor diagnosis, and preparation method and use thereof” (XIAMEN UNIVERSITY, priority 2021, dated 2024)

Columns and labels:
HCC-PDX-1 [1] = assay: Biodistribution in HCC-PDX-1 mice (gamma counter); type: in vivo, mouse; settings: for tumor uptake: HCC-PDX-1, 1.48 MBq
Method: HCC-PDX-1 mice were injected with 1.48 MBq of ^68Ga-2PEG(3)-FAPI-dimer, and 1 h and 4 h after the injection (3 parallel experiments per time point), major organs and tumors were isolated, weighed, and analyzed. The ^68Ga-FAPI-46 group (1.48 MBq) and blocking group (1.48 MBq ^68Ga-2PEG(3)-FAPI-dimer+30 nmol unlabeled FAPI-46) were compared in terms of biodistribution.

[2] = test system: lesions in the three cancer patients; assay: PET/CT in tumor patients (NPC, thyroid cancer, HCC), SUVmax of lesions; type: in vivo, human
Method: This experiment was approved by the Clinical Research Ethics Committee of the First Affiliated Hospital of Xiamen University, and all subjects signed a written informed consent form. Doses of ^68Ga-FAPI-46 and ^68Ga-2PEG(3)-FAPI-dimer for intravenous injection (1.8 MBq to 2.2 MBq [0.05 mCi to 0.06 mCi]/kg) were calculated according to a body weight of a patient. A cancer patient was administered with ^68Ga-2PEG(3)-FAPI-dimer and ^68Ga-FAPI-46 at an interval of 3 d. Data were acquired using a hybrid PET/CT scanner (Discovery MI, GE Healthcare, Milwaukee, WI, USA). A PET/CT image was acquired at 60 min after intravenous injection (a thyroid cancer patient was scanned twice at 60 min and 240 min after injection). A maximum standard uptake value (SUVmax) was automatically calculated with ROIs drawn on a transaxial image. PET/CT scanning was conducted at 60 min after the three patients were intravenously administered with ^68Ga-FAPI-46 and ^68Ga-2PEG(3)-FAPI-dimer, including a nasopharyngeal carcinoma (NPC) patient (non-keratinizing undifferentiated carcinoma, immunotherapy was conducted when the widespread bone metastasis occurred after chemoradiotherapy), a thyroid cancer patient (multiple cycles of radioactive iodine therapy were conducted after papillary thyroid carcinoma (PTC), total thyroidectomy, and lymph node dissection), and an HCC patient (untreated at preliminary diagnosis). The comparison of ^68Ga-FAPI-46 and ^68Ga-2PEG(3)-FAPI-dimer uptake among lesions in the three cancer patients was shown in Table 3.

[3] = Stability test: incubation in PBS or FBS, radiochemical purity by HPLC; type: in vitro ADME; settings: 37° C., 1 h, 2 h, and 4 h
Method: 20 μL of a solution of the ^68Ga-2PEG(3)-FAPI-dimer (3.7 MBq activity/20 μL) prepared in Example 1 (with normal saline (NS) as a solvent) was taken and added to a centrifuge tube with 100 μL of FBS, and incubated at 37° C. for 1 h, 2 h, and 4 h to obtain an FBS co-incubation solution; 20 μL of the FBS co-incubation solution was taken, 40 μL of acetonitrile was added for protein precipitation, and a resulting mixture was filtered through a 0.22 μm needle filter membrane; and a radiochemical purity was analyzed through HPLC.
20 μL of a solution of the ^68Ga-2PEG(3)-FAPI-dimer (3.7 MBq activity/20 μL) prepared in Example 1 (with NS as a solvent) was taken and added to a centrifuge tube with 100 μL of PBS (pH=7.4), and incubated at 37° C. for 1 h, 2 h, and 4 h to obtain a PBS co-incubation solution; 20 μL of the PBS co-incubation solution was taken and filtered through a 0.22 μm needle filter membrane; and a radiochemical purity was analyzed through HPLC.

HCC-PDX-2 = assay: PET imaging in HCC-PDX-2 model; type: in vivo, mouse; settings: HCC-PDX-2, 7.4 MBq via tail vein
Method: (§1) The PET imaging and biodistribution studies were conducted in HCC-PDX1 and HCC-PDX2 mouse models. The histological verification was first conducted, where the immunohistochemical staining and H&E staining were conducted for FAP and Ki67, a tumor tissue was digested for protein extraction, and the expression of FAP was detected by Western Blot. Verification results were shown in FIG. 6A-B, where the immunohistochemical staining result was shown in FIG. 6A and the Western Blot result was shown in FIG. 6B. […] Therefore, the models can be used for further mouse experiments.
The products of ^68Ga-2PEG(3)-FAPI-dimer and ^68Ga-FAPI-46 were each diluted to a concentration of 74 MBq/mL. 7.4 MBq of ^68Ga-2PEG(3)-FAPI-dimer or 7.4 MBq of ^68Ga-FAPI-46 was injected into the HCC-PDX model through the tail vein (3 parallel experiments per group). All PET scans were conducted with an Inveon small animal PET scanner (Siemens Preclinical Solution, USA). The dynamic PET imaging was conducted with a scan duration of 60 min and reconstructed frames of 10×30 s, 10×60 s, 10×120 s, and 9×160 s. The 10 min static PET imaging was conducted with acquisition time points of 0.5 h, 1 h, 2 h, and 4 h after injection. […] Region of interests (ROIs) in the tumor, liver, heart, kidney, and muscle were calculated on PET images to quantify radioactive signals.

HCC-PDX-1 [4] = assay: PET imaging in HCC-PDX-1 model; type: in vivo, mouse
Method: as §1
The products of ^68Ga-2PEG(3)-FAPI-dimer and ^68Ga-FAPI-46 were each diluted to a concentration of 74 MBq/mL. 7.4 MBq of ^68Ga-2PEG(3)-FAPI-dimer or 7.4 MBq of ^68Ga-FAPI-46 was injected into the HCC-PDX model through the tail vein (3 parallel experiments per group). All PET scans were conducted with an Inveon small animal PET scanner (Siemens Preclinical Solution, USA). The dynamic PET imaging was conducted with a scan duration of 60 min and reconstructed frames of 10×30 s, 10×60 s, 10×120 s, and 9×160 s. The 10 min static PET imaging was conducted with acquisition time points of 0.5 h, 1 h, 2 h, and 4 h after injection. For the blocking experiment, 30 nmol of unlabeled FAPI-46 was added to a ^68Ga-2PEG(3)-FAPI-dimer solution (with NS as a solvent) before injection. An image was iteratively reconstructed with 3D OPMAP 256.pPetRcn (Siemens) and converted into a % ID/g image. Region of interests (ROIs) in the tumor, liver, heart, kidney, and muscle were calculated on PET images to quantify radioactive signals.

[5] = Patient 1 (NPC), PET/CT 60 min after i.v. injection
[6] = Patient 2 (Thyroid cancer), PET/CT 60 min after i.v. injection

## CN(CCCN1CCN(C(=O)COCCOCCOCCNC(=O)CCC(=O)N[C@@H](CCCCNC(=O)CN2CCN(CC(=O)[O-])CCN(CC(=O)[O-])CCN(CC(=O)[O-])CC2)C(=O)NCCOCCOCCOCC(=O)N2CCN(CCCN(C)c3ccc4nccc(C(=O)NCC(=O)N5CC(F)(F)C[C@H]5C#N)c4c3)CC2)CC1)c1ccc2nccc(C(=O)NCC(=O)N3CC(F)(F)C[C@H]3C#N)c2c1.[68Ga+3] [^68Ga-2PEG(3)-FAPI-dimer]
HCC-PDX-1 [1]; HCC-PDX-1, 1.48 MBq + 30 nmol unlabeled FAPI-46, 1 h after injection
  tumor uptake in the blocking group: 1.07±0.19 % ID/g
HCC-PDX-1 [1]; HCC-PDX-1, 1.48 MBq + 30 nmol unlabeled FAPI-46, 4 h after injection
  tumor uptake in the blocking group: 1.14±0.15 % ID/g
HCC-PDX-1 [1]; 1 h after injection
  tumor uptake: 8.97±0.32 % ID/g
HCC-PDX-1 [1]; 4 h after injection
  tumor uptake: 7.61±0.64 % ID/g
[2]; [5]
  SUVmax, Bone metastasis 1: 17.8
  SUVmax, Bone metastasis 2: 27.5
  SUVmax, Bone metastasis 3: 27.4
  SUVmax, Bone metastasis 4: 25.1
  SUVmax, Bone metastasis 5: 29.8
  SUVmax, Bone metastasis 6: 20.8
  SUVmax, Bone metastasis 7: 17.2
  SUVmax, Bone metastasis 8: 22.1
  SUVmax, Bone metastasis 10: 23.3
[2]; [6]
  SUVmax, Axillary lymph node 1: 23.2
  SUVmax, Axillary lymph node 2: 33.2
  SUVmax, Axillary lymph node 3: 28.9
  SUVmax, Bone metastasis 1: 26.4
  SUVmax, Cervical lymph node 1: 32.8
  SUVmax, Cervical lymph node 2: 8.1
  SUVmax, Hilar lymph node 1: 18.1
  SUVmax, Mediastinal lymph node 1: 24.6
  SUVmax, Supraclavicular lymph node 1: 39.0
  SUVmax, Supraclavicular lymph node 2: 24.1
[2]; Patient 3 (HCC), tumor with low FAP expression, PET/CT 60 min after i.v. injection
  SUVmax, Primary tumor: 9.8
[2]; three cancer patients, Table 3
  uptake compared with ^68Ga-FAPI-46 in the comparative analysis of single lesions: significantly higher
[3]; FBS
  radiochemical purity after incubation in FBS: greater than 90%
[3]; PBS (pH=7.4)
  radiochemical purity after incubation in PBS: greater than 90%
HCC-PDX-2; PET
  uptake in normal organs: low and decline rapidly
HCC-PDX-2; PET 0.5 h, 1 h, 2 h, 4 h
  uptake and residence in tumor tissue compared with ^68Ga-FAPI-46: better than
HCC-PDX-1 [4]; HCC-PDX-1, 7.4 MBq via tail vein, PET
  uptake in normal organs: low and decline rapidly
HCC-PDX-1 [4]; HCC-PDX-1, 7.4 MBq via tail vein, PET 0.5 h, 1 h, 2 h, 4 h
  uptake and residence in tumor tissue compared with ^68Ga-FAPI-46: better than
HCC-PDX-1 [4]; two liver cancer PDX models (HCC-PDX-1 and HCC-PDX-2), 30 nmol unlabeled FAPI-46
  blocking of tumor uptake by unlabeled FAPI-46: can be blocked by unlabeled FAPI-46
